Experimental data taken from publication PMC8637440, “Structural Modifications Yield Novel Insights Into the Intriguing Pharmacodynamic Potential of Anti-inflammatory Nitro-Fatty Acids” (Frontiers in Pharmacology, 2021).
Several values for one entry are separate records, joined by “and”; a condition that tells them apart may be missing. Equal values may be shown once.

Assays:
12-LO = biological target: T1, 12-LO (Homo sapiens, UniProt P18054); experiment: 12-HETE formation in intact PMNL preparations, A23187 + 20 µM AA; format: cell-based; conditions: 15 min preincubation, A23187 2.5 µM + 20 µM AA, n.i. = no inhibition observed
T1 construct: endogenous in cells; host or cells: platelet impurities in human PMNL preparations
T1 sequence (P18054 1-663): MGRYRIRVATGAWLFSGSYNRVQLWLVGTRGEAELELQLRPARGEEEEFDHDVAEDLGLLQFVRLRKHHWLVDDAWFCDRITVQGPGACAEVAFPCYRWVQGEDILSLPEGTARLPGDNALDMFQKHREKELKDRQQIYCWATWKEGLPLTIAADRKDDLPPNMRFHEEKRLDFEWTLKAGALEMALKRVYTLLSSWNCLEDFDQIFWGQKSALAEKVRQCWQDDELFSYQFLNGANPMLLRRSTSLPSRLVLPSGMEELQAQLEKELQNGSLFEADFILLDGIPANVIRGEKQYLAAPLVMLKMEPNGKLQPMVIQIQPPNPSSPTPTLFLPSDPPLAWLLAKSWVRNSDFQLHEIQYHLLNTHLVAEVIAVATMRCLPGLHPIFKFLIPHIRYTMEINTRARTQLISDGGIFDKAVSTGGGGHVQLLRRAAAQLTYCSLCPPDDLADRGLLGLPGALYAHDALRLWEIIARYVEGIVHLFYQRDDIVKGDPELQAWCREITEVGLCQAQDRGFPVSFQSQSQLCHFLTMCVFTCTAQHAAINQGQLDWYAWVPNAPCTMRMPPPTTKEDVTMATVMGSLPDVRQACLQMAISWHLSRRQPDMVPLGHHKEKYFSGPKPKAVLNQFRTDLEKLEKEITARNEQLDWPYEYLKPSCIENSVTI
Procedure: (§1) Buffy coats from different donors of different blood types were commercially obtained from DRK Blutspendedienst Baden-Württemberg Institute Frankfurt. Donors have given their written consent. […] Following separation, the supernatant was transferred very gently to new 50-ml tubes containing lymphocyte separation medium (LSM) and centrifuged for 10 min at 800 ×g at RT with the centrifuge brake turned off. Afterwards, the supernatant was decanted carefully to discard the platelets and monocytes. The PMNL were washed with 1× PBS before the residual erythrocytes were lysed in two cycles: the cell pellet was resuspended with 10 ml H2O and vortexed for 45 s, and lysis was stopped with 40 ml 1 × PBS. After 10-min centrifugation at 200 ×g at RT, the cycle was repeated once. The supernatant was aspirated, the cell pellet resuspended in 5 ml PBS/glucose and initially separated PMNL preparations with different blood types were finally pooled to gain a sufficient number of cells. […] The enzyme was diluted in PBS/EDTA/ATP, transferred into 5-ml glass tubes, and stored on ice. […] The reaction was stopped by placing the glass tubes on ice. The supernatants were transferred to 1.5 ml reaction tubes and stored at −80°C before LC-MS (liquid chromatography and mass spectrometry) analysis of LTB4 and HETEs as described in 2.6 at the Institute of Pharmacology, Goethe University, University Hospital, Germany. The lipid mediators LTB4, hydroxyeicosatetraenoic acids, 5(S)-HETE, 12(S)-HETE, 15(S)-HETE and 20-HETE were analyzed using liquid chromatography tandem-mass spectroscopy (LC-MS/MS). The LC-MS/MS system consisted of a 5500 QTrap mass spectrometer (Sciex, Darmstadt, Germany), operating in negative ESI mode, an Agilent 1200 HPLC system (Agilent, Waldbronn, Germany) and an HTC Pal autosampler (Chromtech, Idstein, Germany). Sample extraction of LTB4 and HETEs were performed using liquid-liquid extraction: 200 µl of the sample were gently mixed with 20 µl of methanol and 20 µl of internal standard solution and extracted twice with 600 µl ethyl acetate. […] Working solutions of all analytes were prepared in methanol containing 0.1% BHT. The calibration standards were prepared by further dilution of the working standards. […] The residues were reconstituted in 50 µl of methanol:water:BHT (50:50:10^−4, v/v/v) prior to injection into the LC-MS/MS system. Chromatographic separation was achieved using a Gemini NX C18 column (150 mm × 2 mm ID, 5 µm, Phenomenex, Aschaffenburg, Germany) with a precolumn of the same material. A linear gradient was employed at a flow rate of 0.5 ml/min and a total run time of 17.5 min. Mobile phases were A water:ammonia (100:0.05, v/v) and B acetonitrile:ammonia (100:0.05, v/v). […] All data were acquired using Analyst software v1.6.2 and quantitation was performed by MultiQuant software v3.0 (both Sciex, Darmstadt, Germany) using the internal standard method (isotope-dilution mass spectrometry). Calibration curves were calculated by linear regression with 1/x.

15-LO = biological target: T2, 15-LO (Homo sapiens, UniProt P16050); experiment: 15-HETE formation in intact PMNL preparations, A23187 + 20 µM AA; format: cell-based; conditions: 15 min preincubation, A23187 2.5 µM + 20 µM AA, n.i. = no inhibition observed; for PMNL (20 µM AA) 15-HETE IC50: intact PMNL; for IC50: PMNL (20 µM AA) 15-HETE IC50, intact PMNL
T2 construct: endogenous in cells; host or cells: eosinophils in human PMNL preparations
T2 sequence (P16050 1-662): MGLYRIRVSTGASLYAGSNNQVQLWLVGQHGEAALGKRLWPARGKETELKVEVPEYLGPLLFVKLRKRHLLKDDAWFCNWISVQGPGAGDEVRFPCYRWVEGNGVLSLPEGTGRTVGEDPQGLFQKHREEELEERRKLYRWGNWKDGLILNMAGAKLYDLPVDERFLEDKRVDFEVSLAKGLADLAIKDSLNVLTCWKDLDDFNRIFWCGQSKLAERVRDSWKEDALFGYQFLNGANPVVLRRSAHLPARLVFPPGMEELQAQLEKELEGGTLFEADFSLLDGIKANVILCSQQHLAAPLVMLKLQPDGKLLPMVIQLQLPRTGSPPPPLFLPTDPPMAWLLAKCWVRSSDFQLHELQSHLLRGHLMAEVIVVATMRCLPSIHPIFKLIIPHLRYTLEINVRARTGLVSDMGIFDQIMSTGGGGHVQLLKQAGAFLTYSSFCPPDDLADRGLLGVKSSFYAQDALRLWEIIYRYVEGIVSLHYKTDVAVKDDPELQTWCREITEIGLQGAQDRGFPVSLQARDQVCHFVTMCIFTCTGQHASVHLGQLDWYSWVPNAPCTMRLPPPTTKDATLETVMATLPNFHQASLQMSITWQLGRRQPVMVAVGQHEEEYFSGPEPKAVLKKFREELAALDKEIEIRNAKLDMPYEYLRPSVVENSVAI
Procedure: as §1

PMNL (20 µM AA) 12-HETE IC50 (12-LO)	PMNL (20 µM AA) 15-HETE IC50 (15-LO)	IC50 (15-LO)	Compound
n.i.	n.i.	–	CCC=C(CCCCCCCC(=O)O)[N+](=O)[O-] [12.9.9, 9-nitro-dodec-9-enoic acid]
n.i.	n.i.	–	CCCCC=C(CCCCCCCC(=O)O)[N+](=O)[O-] [14.9.9, 9-nitro-tetradec-9-enoic acid]
n.i.	n.i.	–	CCCCCCC=C(CCCCCCCC(=O)O)[N+](=O)[O-] [16.9.9, 9-nitro-hexadec-9-enoic acid]
n.i.	–	7.7 ± 1.2 µM	CCCCCCCCCCCCCC=C(CCC(=O)O)[N+](=O)[O-] [18.4.4, 4-nitro-octadec-4-enoic acid]
n.i.	–	8.9 ± 1.2 µM	CCCCCCCCCCCCC=C(CCCC(=O)O)[N+](=O)[O-] [18.5.5, 5-nitro-octadec-5-enoic acid]
n.i.	–	14.8 ± 1.1 µM	CCCCCCCCCCCC=C(CCCCC(=O)O)[N+](=O)[O-] [18.6.6, 6-nitro-octadec-6-enoic acid]
n.i.	–	17.3 ± 1.1 µM	CCCCCCCCCCCC(=CCCCCC(=O)O)[N+](=O)[O-] [18.6.7, 7-nitro-octadec-6-enoic acid]
n.i.	–	7.6 ± 1.1 µM	CCCCCCCCCCC=C(CCCCCC(=O)O)[N+](=O)[O-] [18.7.7, 7-nitro-octadec-7-enoic acid]
n.i.	–	16 ± 1.1 µM	CCCCCCCCCC=C(CCCCCCC(=O)O)[N+](=O)[O-] [18.8.8, 8-nitro-octadec-8-enoic acid]
n.i.	–	23.4 ± 1.3 µM	CCCCCCCCCC(=CCCCCCCC(=O)O)[N+](=O)[O-] [18.8.9, 9-nitro-octadec-8-enoic acid]
n.i.	–	20.5 ± 1.3 µM	CCCCCCCCC(=CCCCCCCCC(=O)O)[N+](=O)[O-] [18.9.10, 10-nitro-octadec-9-enoic acid]
n.i.	–	19.6 ± 1.1 µM	CCCCCCCC=C(CCCCCCCCC(=O)O)[N+](=O)[O-] [18.10.10, 10-nitro-octadec-10-enoic acid]
n.i.	–	26 ± 1.3 µM	CCCCCCC=C(CCCCCCCCCC(=O)O)[N+](=O)[O-] [18.11.11, 11-nitro-octadec-11-enoic acid]
n.i.	–	21.2 ± 1.1 µM	CCCCCCCCCCC=C(CCCCCCCC(=O)O)[N+](=O)[O-] [20.9.9, 9-nitro-eicos-9-enoic acid]

Compound	PMNL (20 µM AA) 12-HETE IC50 (12-LO)	PMNL (20 µM AA) 15-HETE IC50 (15-LO)	IC50 (15-LO)
CCCCCCCCC=C(CCCCCCCC(=O)O)[N+](=O)[O-] [18.9.9, 9-nitro-octadec-9-enoic acid]	n.i.	–	17.6 µM and 20.4 µM
CCCCCCCC/C=C\CCCCCCCC(=O)O [OA, oleic acid, reference compound]	not affected and n.i.	not affected and n.i.	–
